Here are results for five compounds from US20260053171A1, “METHANOGEN INHIBITORS” (AGRIZERONZ LIMITED PARTNERSHIP, priority 2022, published 2026).

Data set [1] relates to methane emissions from sheep. Kind of data set: Example 1: in vivo study on sheep methane emissions (respiration chambers, once-daily drench). Conditions: once-daily drenching, 121.3 mg/day, average of 3 sheep. How it is done: The trial for testing the effects of Compound 19 on methane emissions from sheep over a 96 hour period in methane measurement chambers was approved by the Grasslands Animal Ethics Committee, and the use of the compounds in animals by the New Zealand Food Safety Authority, as required under ACVM legislation. Three sheep were used for each Compound 19 treatment group. The animals received a general-purpose diet (GP) at 1.5× maintenance energy requirements throughout the trials consisting of 500 g hay, 100 g soy bean meal, 290 g barley, 100 g molasses and 10 g mineral mix. During the time in the respiration chambers the animals had free access to water, with the feed offered twice a day at approximately 9:00 and 16:00 h in equal amounts. Feed refusals were weighed.
The animals were adapted to GP diet for 14 days prior to entering the methane measurement chambers. Rumen contents were sampled by stomach tubing before methane emissions were measured in the respiration chambers and the day after being released from the chambers to allow for the future examination of any effects on volatile fatty acids (VFAs). Rumen samples from stomach tubing were immediately subsampled for short chain fatty acid (SCFA) analysis (1.8 ml). The samples were centrifuged (20,000 g, 10 min, 4° C.). […] SCFA were analysed by a HP 6890 gas chromatograph (Attwood et al., 1998).
After the 14-day acclimatisation period, methane emissions were measured in open circuit respiration chambers as described in Chapter 1 of the technical manual on respiration chamber design (http://www.globalresearchalliance.org/wp-content/uploads/2012/03/GRA-MAN-Facility-BestPract-2012-ch13.pdf). Dry matter intake (DMI, kg/d) was recorded during methane measurements from the weight difference of feed offered and refused. […]
Methane gas outputs for the 96-hour period (first 24 hours for background measurements (Period 1), followed by three days of dosing) in open circuit respiration chambers were determined and are summarised in Table 1.

Data set [2] deals with methane production in rumen fluid. Put plainly: Rumen in vitro (RIV) assay, methane production from rumen fluid incubations. The format is cell-based, cattle. The following applies: Bos taurus, read-out: RIV % methane reduction +/− SD. Put shortly:
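Rumen fluid from two fistulated cattle diluted 12 ml in 48 ml buffer with ryegrass substrate, incubated in sealed bottles at 39° C for 24-48 h in duplicate. Inhibitors added in DMF (stocks 1000-fold above highest assay level); total gas, methane and H2 measured automatically; 30 μM BES positive control, no-inhibitor negative control.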

The subject of data set [3] is female Swiss mice. Kind of data set: Toxicity testing in mice according to OECD 423. Format: in vivo. Conditions: 300 mg/kg, single dose by oral gavage in corn oil, observed 14 days. How it is done:
The potential toxicology of Compound 19 was tested according to OECD 423. Mice testing used two groups with three mice (female Swiss mice, non-pregnant), all at approximately 8-9 weeks of age. On the day of testing, food was withdrawn 1-2 hours prior to dosing. Following fasting, the animals were weighed and the test substances administered. Access to food was resumed 1-2 hours after administration of the compounds. The compounds were administered in a single dose by oral gavage in corn oil (maximum of 0.3 ml per dose) at the selected dose and the time recorded. The mice were observed individually after dosing at least once during the first 30 minutes, periodically over the first 24 hours, with special attention given to the first 4 hours, and then daily thereafter for a total of 14 days. The mice were weighed every seven days (0, 7 and 14 days). All observations were systematically recorded for each individual animal. These observations included (if present): tremors, convulsions, salivation, diarrhoea, lethargy, sleep, coma, and changes in fur, skin, eyes, mucus membranes, respiration, motor activity and behaviour.

The subject of data set [4] is methane emissions from sheep. Kind of data set: Example 2: in vivo study on sheep methane emissions (respiration chambers, dosing in feed twice daily). The following applies: for CH4 Inhibition [%] Average Days 1-3: Average Days 1-3, dose mg/day: Compound 60 412, 69 311, 67 414, 64 344. An excerpt:
(§1) The trial for testing the effects of Compound 60, Compound 69, Compound 67 and Compound 64 on methane emissions from sheep over a 96-hour period in methane measurement chambers was approved by the Grasslands Animal Ethics Committee. Three sheep were used for each Compound 60 and Compound 69 treatment group and six sheep were used for each Compound 67 and Compound 64 treatment group. The animals received a general-purpose diet (GP) at 1.5× maintenance energy requirements throughout the trials consisting of 500 g hay, 100 g soybean meal, 290 g barley, 100 g molasses and 10 g mineral mix. During the time in the respiration chambers the animals had free access to water, with the feed offered twice a day at approximately 9:00 and 16:00 h in equal amounts. Feed refusals were weighed.
(§2) The animals were adapted to GP diet for 14 days prior to entering the methane measurement chambers. Rumen contents were sampled by stomach tubing before methane emissions were measured in the respiration chambers and the day after being released from the chambers to allow for the future examination of any effects on volatile fatty acids (VFAs). Rumen samples from stomach tubing were immediately subsampled for short chain fatty acid (SCFA) analysis (1.8 ml). The samples were centrifuged (20,000 g, 10 min, 4° C.). An aliquot of 0.9 ml of the supernatant was collected into 0.1 ml of internal standard (19.8 mM ethylbutyrate in 20% v/v phosphoric acid) for SCFA analysis and stored at −20° C. SCFA samples were thawed and centrifuged (20,000 g, 10 min, 4° C.) and 800 μl of the supernatant was collected into a crimp cap glass vial. SCFA were analysed by a HP 6890 gas chromatograph (Attwood et al., 1998).
After the 14-day acclimatisation period, methane emissions were measured in open circuit respiration chambers as described in Chapter 1 of the technical manual on respiration chamber design (http://www.globalresearchalliance.org/wp-content/uploads/2012/03/GRA-MAN-Facility-BestPract-2012-ch13.pdf). Dry matter intake (DMI, kg/d) was recorded during methane measurements from the weight difference of feed offered and refused. The first day in the chambers (24-hour period; Period 1) served as a control for each animal. For the next three days the sheep received Compound 60, Compound 69, Compound 67 and Compound 64 at 412, 311, 414 and 344 mg per day, respectively (72-hour period; Period 2).
Methane gas outputs for the 96-hour period (first 24 hours for background measurements (Period 1), followed by three days of dosing (Period 2)) in open circuit respiration chambers were determined and are summarised in Table 2.

Data set [5] has as its system methane emissions from cattle. Put plainly: Example 3: in vivo cattle trial on methane emissions (respiration chambers, dosing in feed twice daily).
Text: as §1, with “various doses of” for “Compound 60, Compound 69, Compound 67 and”, “cattle” for “sheep”, “four 48-hour periods” for “a 96-hour period”, “Four cattle (Friesian dairy heifers, approximately 400 kg)” for “Three sheep”, “of two” for “Compound 60 and Compound 69 treatment group and six sheep were used for each Compound 67 and”, “groups.” for “group.”
as §2
After the 14-day acclimatisation period, methane emissions were measured in open circuit respiration chambers as described in Chapter 1 of the technical manual on respiration chamber design (http://www.globalresearchalliance.org/wp-content/uploads/2012/03/GRA-MAN-Facility-BestPract-012-ch13.pdf). Dry matter intake (DMI, kg/d) was recorded during methane measurements from the weight difference of feed offered and refused. Chamber measurements were made once a week for five weeks. The first period in the chambers (48-hour period; Period 1) served as a control for each animal. […]
Methane gas outputs for the four 48-hour treatment periods (Periods 2-5) in open circuit respiration chambers were determined and are summarised in Table 1. There were little or no feed refusals.

Where [6] appears, read: Day 1, dose mg/day: Compound 60 412, 69 311, 67 414, 64 344.
The mark [7] stands for this setting: Day 2, dose mg/day: Compound 60 412, 69 311, 67 414, 64 344.
The mark [8] stands for this setting: Day 3, dose mg/day: Compound 60 412, 69 311, 67 414, 64 344.

Regarding `O=C(O)CCC(=O)N1N=C(c2ccc(-c3ccc(Cl)cc3)cc2)CC1c1ccc2nccnc2c1` (stereo not shown) [Compound 19, 4-(3-(4′-Chloro-[1,1′-biphenyl]-4-yl)-5-(quinoxalin-6-yl)-4,5-dihydro-1H-pyrazol-1-yl)-4-oxobutanoic acid], the “CH4 Inhibition [%]” value is listed as −6.5% in data set [1] (Day 1), 8.9% in data set [1] (Day 2) and 11.4% in data set [1] (Day 3). For the same compound, the inhibition at 2 µM in data set [2] is 5.3 ± 0.6%. For the same compound, in data set [2], the inhibition at 10 µM stood at 83.7 ± 0.6%. For the same compound, the inhibition at 50 µM in data set [2] was determined as 91.1 ± 0.3%. In data set [3], the “adverse effects (OECD 423)” value is “No adverse effects”.
For `O=C(O)c1cccc(N2N=C(c3ccc(Cl)cc3)CC2c2ccc3nccnc3c2)c1` (stereo not shown) [Compound 60, 3-(3-(4-Chlorophenyl)-5-(quinoxalin-6-yl)-4,5-dihydro-1H-pyrazol-1-yl)benzoic acid], in data set [2], the inhibition at 2 µM was determined as 16.1 ± 0.5%, the inhibition at 10 µM was determined as 90.9 ± 1.2% and the inhibition at 50 µM came out at 97.7 ± 0.6%. Besides, the “CH4 Inhibition [%] Average Days 1-3” value in data set [4] worked out at 26.2%. Besides, in data set [4] (setting [6]), the “CH4 Inhibition [%]” value turned out to be 26.3%. Also, the “CH4 Inhibition [%]” value in data set [4] (setting [7]) worked out at 20.9%. Also, the “CH4 Inhibition [%]” value in data set [4] (setting [8]) is 31.2%.
Consider `CC(C)Oc1ccc(-c2ccc(C3=NN(C(=O)CCC(=O)O)C(c4ccc5nccnc5c4)C3)cc2)cc1` (stereo not shown) [Compound 64, 4-(3-(4′-Isopropoxy-[1,1′-biphenyl]-4-yl)-5-(quinoxalin-6-yl)-4,5-dihydro-1H-pyrazol-1-yl)-4-oxobutanoic acid], for which the inhibition at 2 µM in data set [2] came out at 81%. In addition, in data set [2], the inhibition at 10 µM is 97.5%. In data set [4], the “CH4 Inhibition [%] Average Days 1-3” value is on record as 85.8%. The “CH4 Inhibition [%]” value in data set [4] (setting [6]) was 81.9%; in data set [4] (setting [7]) it was 85.6%; in data set [4] (setting [8]), 89.8%; in data set [5] (High dose group, Period 2, 150 mg/day), 1.9 ± 5.2%; in data set [5] (High dose group, Period 3, 450 mg/day), 15.6 ± 11.7%; in data set [5] (High dose group, Period 4, 450 mg/day), 0.5 ± 5.8%. Moreover, the “CH4 Inhibition [%]” value in data set [5] (High dose group, Period 5, 450 mg/day) is 5.6 ± 3.0%; in data set [5] (Low dose group, Period 2, 50 mg/day) it was −4.7 ± 2.9%; in data set [5] (Low dose group, Period 3, 300 mg/day), 20.2 ± 9.8%; in data set [5] (Low dose group, Period 4, 300 mg/day) it was 2.5 ± 4.6%; in data set [5] (Low dose group, Period 5, 300 mg/day), −1.8 ± 4.0%.
As for `O=C(O)CCC(=O)N1N=C(c2ccc(-c3ccc(OC(F)(F)F)c(F)c3)cc2)CC1c1ccc2nccnc2c1` (stereo not shown) [Compound 67, 4-(3-(3′-Fluoro-4′-(trifluoromethoxy)-[1,1′-biphenyl]-4-yl)-5-(quinoxalin-6-yl)-4,5-dihydro-1H-pyrazol-1-yl)-4-oxobutanoic acid], in data set [2], the inhibition at 2 µM amounted to 51.8 ± 8.4%. In data set [2], the inhibition at 10 µM is 92.4 ± 1.5%. The “CH4 Inhibition [%] Average Days 1-3” value in data set [4] is given as 36.5%. The “CH4 Inhibition [%]” value in data set [4] (setting [6]) is 24.2%; in data set [4] (setting [7]) it was 36.7%; in data set [4] (setting [8]) it was 48.6%.
For `CC(C)S(=O)(=O)NC(=O)CCC(=O)N1N=C(c2ccc(-c3ccccc3)cc2)CC1c1ccc2nccnc2c1` (stereo not shown) [Compound 69, 4-(3-([1,1′-Biphenyl]-4-yl)-5-(quinoxalin-6-yl)-4,5-dihydro-1H-pyrazol-1-yl)-N-(isopropylsulfonyl)-4-oxobutanamide], in data set [2], the inhibition at 2 µM is 37.6 ± 5.6%. Also, the inhibition at 10 µM in data set [2] turned out to be 92.8 ± 1.8%. In addition, the “CH4 Inhibition [%] Average Days 1-3” value in data set [4] is 23.5%. The results for the “CH4 Inhibition [%]” value in data set [4] (setting [6]), in data set [4] (setting [7]) and in data set [4] (setting [8]) were 11.9%, 26.3% and 32.4%, respectively.
